One test deals with OPM-2. As to the kind of experiment: WST anti-proliferative assay, multiple myeloma cell line OPM-2. Type of test: cell-based. The settings on record: Homo sapiens; OPM-2 cells, 72 hours, CCK-8. The source says:
(§1) WST Anti-Proliferative Assay and Assessment of Growth Inhibitory of Novel Compounds in Multiple Myeloma Cell Lines.

The test system of test [1] is p21 promoter-luciferase construct. The test can be described thus: p21 reporter gene induction (HeLa cells, p21 promoter-luciferase construct).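 On all read-outs here: transfected HeLa cells exposed to compound for 15 h, luciferase luminescence read from lysates, p21 promoter lacks p53 site, proxy for cellular HDAC1/2/3 inhibition.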 Particulars: for p21 RP3: relative gene level of p21 compared to MS275 at 3 μM; for p21 RP10: relative level of p21 compared to MS275 at 10 μM; for p21 RP30: relative level of p21 compared to MS275 at 30 μM. (In general: Reporter assays use an easily measured gene product as a stand-in for the process of interest.)

Another test deals with RPMI-8226. The test can be described thus: WST anti-proliferative assay, multiple myeloma cell line RPMI-8226. Type of test: cell-based. The settings on record: Homo sapiens, RPMI8226 cells, 72 hours, CCK-8.
Description: as §1

The target in another test is T1, HDAC6 (Homo sapiens, UniProt Q9UBN7).
T1 construct: endogenous in cells; host or cells: A549 cells
T1 sequence (Q9UBN7 1-1215): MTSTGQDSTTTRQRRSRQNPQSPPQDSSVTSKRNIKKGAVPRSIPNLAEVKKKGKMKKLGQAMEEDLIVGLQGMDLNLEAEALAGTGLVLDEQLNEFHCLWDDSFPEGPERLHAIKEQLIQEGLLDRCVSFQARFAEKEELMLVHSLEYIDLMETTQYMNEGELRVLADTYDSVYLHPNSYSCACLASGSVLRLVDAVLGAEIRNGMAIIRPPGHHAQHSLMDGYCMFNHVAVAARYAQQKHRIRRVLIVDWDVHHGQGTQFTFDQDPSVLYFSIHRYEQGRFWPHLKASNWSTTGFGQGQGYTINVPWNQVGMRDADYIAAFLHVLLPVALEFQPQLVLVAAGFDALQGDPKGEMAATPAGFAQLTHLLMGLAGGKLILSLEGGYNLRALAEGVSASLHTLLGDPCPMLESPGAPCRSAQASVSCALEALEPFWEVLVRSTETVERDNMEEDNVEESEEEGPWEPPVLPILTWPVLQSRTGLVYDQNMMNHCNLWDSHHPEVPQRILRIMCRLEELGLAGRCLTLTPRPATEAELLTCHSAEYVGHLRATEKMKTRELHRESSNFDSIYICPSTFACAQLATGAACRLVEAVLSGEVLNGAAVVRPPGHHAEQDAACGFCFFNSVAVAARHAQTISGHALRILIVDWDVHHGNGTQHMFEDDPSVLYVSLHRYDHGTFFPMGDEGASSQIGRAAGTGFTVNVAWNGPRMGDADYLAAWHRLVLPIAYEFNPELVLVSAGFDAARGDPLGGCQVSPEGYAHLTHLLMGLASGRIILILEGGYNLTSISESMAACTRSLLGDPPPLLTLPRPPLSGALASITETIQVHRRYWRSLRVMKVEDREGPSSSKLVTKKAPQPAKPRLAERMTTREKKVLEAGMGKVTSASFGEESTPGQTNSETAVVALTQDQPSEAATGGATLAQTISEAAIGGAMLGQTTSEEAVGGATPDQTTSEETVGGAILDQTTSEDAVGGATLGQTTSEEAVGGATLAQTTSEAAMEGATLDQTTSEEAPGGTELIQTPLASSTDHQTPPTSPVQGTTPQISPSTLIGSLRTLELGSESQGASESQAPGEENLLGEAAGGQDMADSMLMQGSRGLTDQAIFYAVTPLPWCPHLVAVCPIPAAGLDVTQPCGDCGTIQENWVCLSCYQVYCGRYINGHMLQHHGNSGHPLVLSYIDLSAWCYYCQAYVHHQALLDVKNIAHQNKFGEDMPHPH
As to the kind of experiment: Tubulin acetylation cytoblot assay (A549 cells). Type of test: cell-based. The settings on record: 17-18 h incubation, tubulin acetylation as marker of HDAC6 inhibition, read-out: Tub-Ac EC50. In a few lines:
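Cells were exposed to compound for 17-18 h, then fixed with formaldehyde and permeabilized with cold MeOH. They were probed for 4 h at 4° C with anti-acetylated tubulin plus HRP anti-mouse IgG (each 1:750), and read by ECL luminescence. EC50 values came from curves normalized to top and bottom controls.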

A further test addresses T2, recombinant human HDAC8 (Homo sapiens, UniProt Q9BY41).
T2 construct: made in house; host or cells: insect cells
T2 sequence (Q9BY41 1-377): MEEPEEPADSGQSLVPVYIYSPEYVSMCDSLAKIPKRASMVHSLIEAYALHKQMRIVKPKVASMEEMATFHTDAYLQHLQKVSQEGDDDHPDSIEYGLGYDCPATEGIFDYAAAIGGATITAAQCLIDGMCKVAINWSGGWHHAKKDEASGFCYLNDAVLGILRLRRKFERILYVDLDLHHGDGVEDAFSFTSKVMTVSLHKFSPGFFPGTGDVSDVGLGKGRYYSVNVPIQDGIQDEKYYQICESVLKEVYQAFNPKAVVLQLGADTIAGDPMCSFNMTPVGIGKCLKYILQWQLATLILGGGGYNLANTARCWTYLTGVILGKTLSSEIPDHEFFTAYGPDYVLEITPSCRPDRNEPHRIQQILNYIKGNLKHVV
As to the kind of experiment: HDAC8 inhibition: recombinant HDAC8 fluorometric assay. Particulars: recombinant human HDAC8, substrate Ac-Arg-His-Lys-Lys(ε-acetyl)-AMC; read-out: HDAC8 IC50. Type of test: biochemical. The method, boiled down: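 Recombinant human HDAC8 from insect cells was preincubated with compound for 15 min at rt, then given Ac-Arg-His-Lys-Lys(ε-acetyl)-AMC substrate for 30 min at rt. IC50 came from normalized percent inhibition with curve fitting.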

Structures are written as SMILES. pEC50, pIC50: −log10 of the molar value.

By pIC50 is commonly meant the IC50 on a negative log10 scale, so that one unit is a factor of ten. One may read the pEC50 as −log10 of the EC50, conventionally taken in molar units. `O=C(NO)c1ccc(NC2CCN(c3ccc(Cl)cc3)C2=O)cc1` (stereo not drawn) [Example 7, 4-[1-(4-Chloro-phenyl)-2-oxo-pyrrolidin-3-ylamino]-N-hydroxy-benzamide]: the pIC50 in the test with OPM-2 was 5.25; in the test on RPMI-8226, 5.06; on recombinant human HDAC8 it was 6.26. Further, the “p21 RP3” value in test [1] is recorded as −0.08. The “p21 RP10” value in test [1] was found to be 0.12. Besides, in test [1], the “p21 RP30” value was determined as 0.16. Moreover, on HDAC6, the negative logarithm of the EC50 (pEC50) is 5.85.
`CC(C)(c1ccccc1)N1CCC(Nc2ccc(C(=O)NO)cc2)C1=O` (stereo not drawn) [Example 47, N-Hydroxy-4-[1-(1-methyl-1-phenyl-ethyl)-2-oxo-pyrrolidin-3-ylamino]-benzamide] had a pIC50 in the test on OPM-2 of 5.44. Besides, in test [1], the “p21 RP3” value was determined as 0.05, the “p21 RP10” value worked out at 0.09 and the “p21 RP30” value was 0.29. In the test with RPMI-8226, this compound showed a pIC50 of 5.39. Further, the pEC50 on HDAC6 was 5.52. For the same compound, the pIC50 on recombinant human HDAC8 is 6.28.
For the compound `CC1(Nc2ccc(C(=O)NO)cc2)CCN(c2ccc(Cl)cc2)C1=O` (stereo not drawn) [Example 60, 4-[1-(4-Chloro-phenyl)-3-methyl-2-oxo-pyrrolidin-3-ylamino]-N-hydroxy-benzamide], the pIC50 in the test with OPM-2 was 5.40. In addition, in test [1], the “p21 RP3” value stood at 0.80, the “p21 RP10” value worked out at 0.16 and the “p21 RP30” value is 0.07. The negative logarithm of the IC50 (pIC50) with RPMI-8226 is 5.09. Further, at HDAC6, the pEC50 is 6.28. Further, the pIC50 at recombinant human HDAC8 is 6.04.
Take `O=C(NO)c1ccc(NC2CC(=O)N(c3ccc(F)cc3)C2)cc1` (stereo not drawn) [Example 70, 4-[1-(4-Fluoro-phenyl)-5-oxo-pyrrolidin-3-ylamino]-N-hydroxy-benzamide]: the values for the pIC50 in the test with OPM-2, in the test with RPMI-8226 and at recombinant human HDAC8 were 5.19, 4.97 and 6.70, respectively. Besides, in test [1], the “p21 RP3” value is listed as −0.07. Moreover, the “p21 RP10” value in test [1] is 0.00. Further, the “p21 RP30” value in test [1] was 0.02. The pEC50 at HDAC6 is 5.77.
With `O=C(NO)c1ccc(NC2CC(=O)N(c3ccccc3Cl)C2)cc1` (stereo not drawn) [Example 71, 4-[1-(2-Chloro-phenyl)-5-oxo-pyrrolidin-3-ylamino]-N-hydroxy-benzamide], the pIC50 with OPM-2 is 5.46. In test [1], the “p21 RP3” value is recorded as 0.13, the “p21 RP10” value was determined as 0.06 and the “p21 RP30” value is 0.04. The compound further had a pIC50 in the test with RPMI-8226 of 5.25. The negative logarithm of the EC50 (pEC50) on HDAC6 was 6.09. In addition, the negative-log IC50 (pIC50) at recombinant human HDAC8 is 6.00.
Consider `O=C(NO)c1ccc(NC2CC(=O)N(c3ccc(Cl)cc3)C2)cc1` (stereo not drawn) [Example 73, 4-[1-(4-Chloro-phenyl)-5-oxo-pyrrolidin-3-ylamino]-N-hydroxy-benzamide], for which the pIC50 is 5.31 in the test on OPM-2, 5.19 with RPMI-8226 and 5.98 at recombinant human HDAC8. In addition, the “p21 RP3” value in test [1] is 0.12. Further, the “p21 RP10” value in test [1] is 0.04. In addition, the “p21 RP30” value in test [1] is 0.04. Further, the pEC50 on HDAC6 was 5.83.

The values above are taken from US8404738B2 (Hoffmann-La Roche Inc., priority 2011, dated 2013).
